From patent US9963467B2, “Boronic acid derivatives and therapeutic uses thereof” (Rempex Pharmaceuticals, Inc., priority 2014, dated 2018)

How the values were obtained:
[1] = Serum stability of prodrugs, human serum; assay type: in vitro ADME; conditions: human serum; prodrug; theoretical initial conc. 20 ug/mL
Method: (§1) Prodrug strategy is one of the ways to achieve or increase oral bioavailability for therapeutic drugs. […] After a prodrug molecule is absorbed into systemic circulation, it should be hydrolyzed in the blood in order to release the active form. Hydrolysis of several prodrugs by rat and human serum were evaluated.
(§2) For all stability experiments the test compounds were treated with rat or human serum in Eppendorf tubes. Typically, 992 μl of serum was prewarmed at 37 degrees for 2 minutes and then 8 μl of a compound (at 5 mg/ml, 125×) was added to it to get a final concentration of […] and immediately mixed. Alternatively, serum stability might be tested at 1 mg/ml. […] After vortexing for 30 seconds, the tube was centrifuged in a microcentrifuge for 10 minutes at 15K rpm. Next, 100 μl of the supernatant was combined with 600 μl of water and injected on LC-MS using 0.1% formic acid in water for mobile phase A and 0.1% formic acid in methanol for mobile phase B on an ACE 5 C18 2.1×100 mm column with a 10 μL injection. The flow rate and gradient were adjusted as needed to give the desired resolution and run time. The pH of the mobile phase was adjusted if needed to improve the chromatography.
(§3) The time course of both the disappearance of a prodrug and the appearance of the active form of that prodrug is presented in Table 6 and Table 7. The active metabolites for all of the listed prodrugs are corresponding parent drugs

[2] = Serum stability of prodrugs, rat serum; assay type: in vitro ADME; conditions: theoretical initial conc. 20 ug/mL; for Measured Initial Conc. in Serum: 37 degrees
Method: as §1, §2, §3

[3] = Serum stability of prodrugs, human serum; assay type: in vitro ADME; conditions: theoretical initial conc. 20 ug/mL; for Measured Initial Conc. in Serum: 37 degrees; for Conc. at t = 1 hr: prodrug
[4] = system: ec302 (TEM-10); test: Aztreonam potentiation (MPC@4), ec302; assay type: cell-based; conditions: BLI with aztreonam at 4 μg/mL
[5] = system: ECL1002; test: Aztreonam potentiation (MPC@4), ECL1002; assay type: cell-based; conditions: BLI with aztreonam at 4 μg/mL
[6] = system: EC1010 (CMY-6); test: organism not typed; assay type: cell-based
[7] = system: KP1005 (CTX-M-14); test: Tigemonam potentiation (MPC@4), KP1005; assay type: cell-based; conditions: BLI with tigemonam at 4 μg/mL
[8] = system: KP1009 (CTX-M-15); test: Tigemonam potentiation (MPC@4), KP1009; assay type: cell-based; conditions: BLI with tigemonam at 4 μg/mL
[9] = system: ec308 (SHV-5); test: Tigemonam potentiation (MPC@4), ec308; assay type: cell-based
[10] = system: KP1010 (SHV-12); test: Tigemonam potentiation (MPC@4), KP1010; assay type: cell-based
[11] = system: ec302 (TEM-10); test: Tigemonam potentiation (MPC@4), ec302; assay type: cell-based
[12] = system: ECL1002; test: Tigemonam potentiation (MPC@4), ECL1002; assay type: cell-based; conditions: BLI with tigemonam at 4 μg/mL
[13] = system: EC1010 (CMY-6); test: Tigemonam potentiation (MPC@4), EC1010; assay type: cell-based; conditions: BLI with tigemonam at 4 μg/mL
[14] = biological target: CTX-M-14 (Escherichia coli, UniProt Q9L5C7); test: Ki, nitrocefin cleavage by purified enzyme, CTX-M-14; assay type: biochemical; conditions: nitrocefin reporter substrate; read-out: Ki (CTX-M-14, NCF)
Chain of CTX-M-14 (Q9L5C7 29-291): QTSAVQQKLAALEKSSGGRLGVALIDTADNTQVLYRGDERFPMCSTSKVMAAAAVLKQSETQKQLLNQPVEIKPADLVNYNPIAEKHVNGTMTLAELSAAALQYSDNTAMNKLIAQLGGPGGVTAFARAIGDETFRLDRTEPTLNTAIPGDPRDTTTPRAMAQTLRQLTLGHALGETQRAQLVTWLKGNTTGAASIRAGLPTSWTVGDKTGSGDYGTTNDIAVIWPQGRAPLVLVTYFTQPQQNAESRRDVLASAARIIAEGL
Method: (§4) Purified enzymes were mixed with various concentrations of inhibitors in reaction buffer and incubated for 10 min at room temperature. Nitrocefin was added and substrate cleavage profiles were recorded at 490 nm every 10 sec for 10 min.

[15] = biological target: SHV-12 (Klebsiella pneumoniae, UniProt P0AD64, E235K/G234S/L31Q); test: Ki, nitrocefin cleavage by purified enzyme, SHV-12; assay type: biochemical; conditions: nitrocefin reporter substrate; read-out: Ki (SHV-12, NCF)
Chain of SHV-12 (P0AD64 22-286 L31Q/G234S/E235K): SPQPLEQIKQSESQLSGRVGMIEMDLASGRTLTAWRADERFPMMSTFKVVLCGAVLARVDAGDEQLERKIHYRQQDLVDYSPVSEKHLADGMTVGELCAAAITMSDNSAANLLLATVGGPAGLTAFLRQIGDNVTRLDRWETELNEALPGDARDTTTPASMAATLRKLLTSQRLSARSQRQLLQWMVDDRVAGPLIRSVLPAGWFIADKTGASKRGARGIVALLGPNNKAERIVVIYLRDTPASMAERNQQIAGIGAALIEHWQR
Method: as §4

[16] = biological target: KPC-2 (Klebsiella pneumoniae, UniProt Q9F663); test: Ki, nitrocefin cleavage by purified enzyme, KPC-2; assay type: biochemical; conditions: nitrocefin reporter substrate; read-out: Ki (KPC-2, NCF)
Chain of KPC-2 (Q9F663 25-293, looked up, species assumed): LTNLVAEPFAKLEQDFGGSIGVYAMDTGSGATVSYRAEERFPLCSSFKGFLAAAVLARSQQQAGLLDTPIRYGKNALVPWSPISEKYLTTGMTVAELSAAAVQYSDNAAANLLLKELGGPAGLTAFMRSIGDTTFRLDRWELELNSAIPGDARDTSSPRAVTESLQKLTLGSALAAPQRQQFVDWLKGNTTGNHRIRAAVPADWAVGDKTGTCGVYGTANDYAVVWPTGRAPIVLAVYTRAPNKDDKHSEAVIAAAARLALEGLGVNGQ
Method: as §4

[17] = biological target: P99 (Enterobacter cloacae, UniProt P05364); test: Ki, nitrocefin cleavage by purified enzyme, P99; assay type: biochemical; conditions: nitrocefin reporter substrate; read-out: Ki (P99, NCF)
Chain of P99 (P05364 21-381): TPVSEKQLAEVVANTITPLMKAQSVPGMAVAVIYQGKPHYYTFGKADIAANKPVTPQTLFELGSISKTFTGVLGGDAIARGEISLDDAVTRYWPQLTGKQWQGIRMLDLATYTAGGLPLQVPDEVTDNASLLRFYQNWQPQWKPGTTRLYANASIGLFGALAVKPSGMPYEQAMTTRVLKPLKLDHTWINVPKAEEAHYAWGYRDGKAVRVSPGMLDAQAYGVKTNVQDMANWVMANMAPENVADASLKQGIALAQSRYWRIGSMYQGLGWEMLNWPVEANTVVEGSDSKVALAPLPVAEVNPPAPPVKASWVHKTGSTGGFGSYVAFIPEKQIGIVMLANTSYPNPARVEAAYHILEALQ
Method: as §4

[18] = biological target: Pa AmpC (Pseudomonas aeruginosa, UniProt P24735); test: Ki, nitrocefin cleavage by purified enzyme, Pa AmpC; assay type: biochemical; conditions: nitrocefin reporter substrate; read-out: Ki (Pa AmpC, NCF)
Chain of Pa AmpC (P24735 27-397): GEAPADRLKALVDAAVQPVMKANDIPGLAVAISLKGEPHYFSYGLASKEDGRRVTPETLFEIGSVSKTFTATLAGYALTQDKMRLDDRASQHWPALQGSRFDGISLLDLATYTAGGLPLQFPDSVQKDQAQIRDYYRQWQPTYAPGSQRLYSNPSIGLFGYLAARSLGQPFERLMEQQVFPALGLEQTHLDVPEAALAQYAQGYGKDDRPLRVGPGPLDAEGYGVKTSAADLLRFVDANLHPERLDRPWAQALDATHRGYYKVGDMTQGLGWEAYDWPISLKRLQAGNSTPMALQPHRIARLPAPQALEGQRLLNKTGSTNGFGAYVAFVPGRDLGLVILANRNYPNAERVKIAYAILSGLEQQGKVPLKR
Method: Ki values of inhibition of purified class A, C and D enzymes were determined spectrophotometrically using nitrocefin as reporter substrate. Purified enzymes were mixed with various concentrations of inhibitors in reaction buffer and incubated for 10 min at room temperature. Nitrocefin was added and substrate cleavage profiles were recorded at 490 nm every 10 sec for 10 min. These experiments confirmed that the described compounds are inhibitors with a broad-spectrum of activity towards various β-lactamases.

[19] = biological target: OXA-48 (Klebsiella pneumoniae, UniProt Q6XEC0); test: Ki, nitrocefin cleavage by purified enzyme, OXA-48; assay type: biochemical; conditions: nitrocefin reporter substrate; read-out: Ki (OXA-48, NCF)
Chain of OXA-48 (Q6XEC0 23-265, looked up, species assumed): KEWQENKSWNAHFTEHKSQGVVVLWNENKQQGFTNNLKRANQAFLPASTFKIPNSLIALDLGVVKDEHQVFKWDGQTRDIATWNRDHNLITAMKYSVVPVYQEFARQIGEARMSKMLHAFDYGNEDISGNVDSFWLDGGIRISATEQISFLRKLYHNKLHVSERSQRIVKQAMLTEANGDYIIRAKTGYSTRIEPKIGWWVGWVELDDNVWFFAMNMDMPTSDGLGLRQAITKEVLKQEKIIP
Method: as §4

[20] = system: KP1004 (KPC-2); test: Biapenem potentiation (MPC@1), KP1004; conditions: BLI with biapenem at 1 μg/mL
[21] = system: KP1086 (OXA-48); test: Biapenem potentiation (MPC@1), KP1086; conditions: BLI with biapenem at 1 μg/mL

With CCC(=O)OCOC(=O)c1c(F)ccc2c1OB(O)[C@@H](NC(=O)CSC)C2 [Compound 16, (R)-propionyloxymethyl 7-fluoro-2-hydroxy-3-(2-(methylthio)acetamido)-3,4-dihydro-2H-benzo[e][1,2]oxaborinine-8-carboxylate] the “Conc. at t = 3 hr” value [1] was 270 ng/mL, the “Measured Initial Conc. in Serum” value [2] was 20.2 µg/mL and the “Conc. at t = 1 hr” value ([2]; prodrug) was 400 ng/mL. The “Conc. at t = 3 hr” value ([2]; prodrug) was 0 ng/mL, the “Measured Initial Conc. in Serum” value [3] was 20.7 µg/mL and the “Conc. at t = 1 hr” value [3] was 2290 ng/mL.
With CSCC(=O)N[C@H]1Cc2ccc(F)c(C(=O)OCOC(=O)C(C)C)c2OB1O [Compound 17, (R)-isobutyryloxymethyl 7-fluoro-2-hydroxy-3-(2-(methylthio)acetamido)-3,4-dihydro-2H-benzo[e][1,2]oxaborinine-8-carboxylate] the “Conc. at t = 3 hr” value [1] was 160 ng/mL, the “Measured Initial Conc. in Serum” value [2] was 9.22 µg/mL and the “Conc. at t = 1 hr” value ([2]; prodrug) was 1350 ng/mL. For the same compound, the “Measured Initial Conc. in Serum” value [3] was 9.74 µg/mL and the “Conc. at t = 1 hr” value [3] was 1180 ng/mL.
With COc1ccc2c(c1C(=O)O)OB(O)[C@@H](NC(=O)CSC(F)F)C2 [Compound 25, (R)-3-(2-(difluoromethylthio)acetamido)-2-hydroxy-7-methoxy-3,4-dihydro-2H-benzo[e][1,2]oxaborinine-8-carboxylic acid] the “AZT MPC4 TEM-10 ec302” value [4] was “X (MIC of less than 1 ng/mL)”, the “AZT MPC4 ECL1002” value [5] was “Y (MIC of 1 μg/mL to 10 μg/mL)” and the “AZT MPC4 CMY-6 EC1010” value [6] was “Y (key: X: MIC of less than 1 ng/mL; Y: MIC of 1 μg/mL to 10 μg/mL; Z: MIC of greater than 10 μg/mL)”. For the same compound, the “TIG MPC4 CTX-M-14 KP1005” value [7] was “X (MIC of less than 1 μg/mL)”, the “TIG MPC4 CTX-M-15 KP1009” value [8] was “X (MIC of less than 1 μg/mL)” and the “TIG MPC4 SHV-5 ec308” value [9] was “X (key: X: MIC of less than 1 μg/mL; Y: MIC of 1 μg/mL to 10 μg/mL; Z: MIC of greater than 10 μg/mL)”. For the same compound, the “TIG MPC4 SHV-12 KP1010” value [10] was “X (key: X: MIC of less than 1 μg/mL; Y: MIC of 1 μg/mL to 10 μg/mL; Z: MIC of greater than 10 μg/mL)”, the “TIG MPC4 TEM-10 ec302” value [11] was “Y (key: X: MIC of less than 1 ng/mL; Y: MIC of 1 μg/mL to 10 μg/mL; Z: MIC of greater than 10 μg/mL)” and the “TIG MPC4 ECL1002” value [12] was “X (MIC of less than 1 μg/mL)”. For the same compound, the “TIG MPC4 CMY-6 EC1010” value [13] was “X (MIC of less than 1 μg/mL)”, the Ki [14] was < 1 nM and the Ki [15] was < 1 nM. For the same compound, the Ki [16] was 1 to 10 nM, the Ki [17] was 1 to 10 nM and the Ki [18] was > 10 nM. For the same compound, the Ki [19] was < 1 nM, the “BPM MPC1 KP1004 KPC-2” value [20] was “X (MIC of less than 1 μg/mL)” and the “BPM MPC1 OXA-48 KP1086” value [21] was “Z (MIC of greater than 10 μg/mL)”.
In the case of COc1ccc2c(c1C(=O)O)OB(O)[C@@H](NC(=O)CSC1CNC1)C2 [Compound 26, (R)-3-(2-(azetidin-3-ylthio)acetamido)-2-hydroxy-7-methoxy-3,4-dihydro-2H-benzo[e][1,2]oxaborinine-8-carboxylic acid], the “AZT MPC4 TEM-10 ec302” value [4] is reported as “Y (MIC of 1 μg/mL to 10 μg/mL)”, the “AZT MPC4 ECL1002” value [5] is reported as “Y (MIC of 1 μg/mL to 10 μg/mL)” and the “AZT MPC4 CMY-6 EC1010” value [6] is reported as “Y (key: X: MIC of less than 1 ng/mL; Y: MIC of 1 μg/mL to 10 μg/mL; Z: MIC of greater than 10 μg/mL)”. For the same compound, the “TIG MPC4 CTX-M-14 KP1005” value [7] was “X (MIC of less than 1 μg/mL)”, the “TIG MPC4 CTX-M-15 KP1009” value [8] was “X (MIC of less than 1 μg/mL)” and the “TIG MPC4 SHV-5 ec308” value [9] was “X (key: X: MIC of less than 1 μg/mL; Y: MIC of 1 μg/mL to 10 μg/mL; Z: MIC of greater than 10 μg/mL)”. The “TIG MPC4 SHV-12 KP1010” value [10] was “X (key: X: MIC of less than 1 μg/mL; Y: MIC of 1 μg/mL to 10 μg/mL; Z: MIC of greater than 10 μg/mL)”, the “TIG MPC4 TEM-10 ec302” value [11] was “Y (key: X: MIC of less than 1 ng/mL; Y: MIC of 1 μg/mL to 10 μg/mL; Z: MIC of greater than 10 μg/mL)” and the “TIG MPC4 ECL1002” value [12] was “X (MIC of less than 1 μg/mL)”. For the same compound, the “TIG MPC4 CMY-6 EC1010” value [13] was “X (MIC of less than 1 μg/mL)”, the Ki [14] was < 1 nM and the Ki [15] was < 1 nM. For the same compound, the Ki [16] was > 10 nM, the Ki [17] was > 10 nM and the Ki [18] was > 10 nM. The Ki [19] was 1 to 10 nM, the “BPM MPC1 KP1004 KPC-2” value [20] was “X (MIC of less than 1 μg/mL)” and the “BPM MPC1 OXA-48 KP1086” value [21] was “Y (MIC of 1 μg/mL to 10 μg/mL)”.
In the case of COc1ccc2c(c1C(=O)O)OB(O)[C@@H](NC(=O)CC(N)=O)C2 [Compound 27, (R)-3-(3-amino-3-oxopropanamido)-2-hydroxy-7-methoxy-3,4-dihydro-2H-benzo[e][1,2]oxaborinine-8-carboxylic acid], the “AZT MPC4 TEM-10 ec302” value [4] is reported as “Y (MIC of 1 μg/mL to 10 μg/mL)”, the “AZT MPC4 ECL1002” value [5] is reported as “Y (MIC of 1 μg/mL to 10 μg/mL)” and the “AZT MPC4 CMY-6 EC1010” value [6] is reported as “Y (key: X: MIC of less than 1 ng/mL; Y: MIC of 1 μg/mL to 10 μg/mL; Z: MIC of greater than 10 μg/mL)”. The “TIG MPC4 CTX-M-14 KP1005” value [7] was “Y (MIC of 1 μg/mL to 10 μg/mL)”, the “TIG MPC4 CTX-M-15 KP1009” value [8] was “X (MIC of less than 1 μg/mL)” and the “TIG MPC4 SHV-5 ec308” value [9] was “X (key: X: MIC of less than 1 μg/mL; Y: MIC of 1 μg/mL to 10 μg/mL; Z: MIC of greater than 10 μg/mL)”. For the same compound, the “TIG MPC4 SHV-12 KP1010” value [10] was “X (key: X: MIC of less than 1 μg/mL; Y: MIC of 1 μg/mL to 10 μg/mL; Z: MIC of greater than 10 μg/mL)”, the “TIG MPC4 TEM-10 ec302” value [11] was “Z (key: X: MIC of less than 1 ng/mL; Y: MIC of 1 μg/mL to 10 μg/mL; Z: MIC of greater than 10 μg/mL)” and the “TIG MPC4 ECL1002” value [12] was “X (MIC of less than 1 μg/mL)”. For the same compound, the “TIG MPC4 CMY-6 EC1010” value [13] was “X (MIC of less than 1 μg/mL)”, the Ki [14] was < 1 nM and the Ki [15] was < 1 nM. The Ki [16] was > 10 nM, the Ki [17] was > 10 nM and the Ki [18] was > 10 nM. For the same compound, the Ki [19] was < 1 nM, the “BPM MPC1 KP1004 KPC-2” value [20] was “X (MIC of less than 1 μg/mL)” and the “BPM MPC1 OXA-48 KP1086” value [21] was “Y (MIC of 1 μg/mL to 10 μg/mL)”.
